Source: patent US9598396B2, “Tetrahydrophenanthridinones and tetrahydrocyclopentaquinolinones as PARP and tubulin polymerization inhibitors” (Janssen Pharmaceutica NV, priority 2008, dated 2017)

Legend:
Human PARP-1 enzyme = Human PARP-1 enzyme (Homo sapiens (Human), UniProt P09874); test: In vitro Scintillation Proximity Assay (SPA) for PARP-1 inhibitory activity; format: biochemical; details: nicked DNA activated PARP-1, [3H]-NAD+, biotinylated histones
Procedure: C.1.In Vitro Scintillation Proximity Assay (SPA) for PARP-1 Inhibitory Activity
Compounds of the present invention were tested in an in vitro assay based on SPA technology (proprietary to GE healthcare).
In principle, the assay relies upon the well established SPA technology for the detection of poly(ADP-ribosyl)ation of biotinylated target proteins, i.e histones. This ribosylation is induced using nicked DNA activated PARP-1 enzyme and [^3H]-nicotinamide adenine dinucleotide ([^3H]-NAD^+) as ADP-ribosyl donor.
Histones (type II-A, supplier: Sigma) were biotinylated using the biotinylation kit of Amersham and stored aliquoted at −20° C. A stock solution of 100 mg/ml SPA poly(vinyl toluene) (PVT) beads (supplier: Amersham) was made in PBS. A stock solution of 61.6 nM […] was made by adding [^3H]-NAD^+ (0.1 mCi/ml, supplier: Perkin Elmer) to incubation buffer (50 mM Tris/HCl, pH 8; 0.2 mM DTT; 4 mM MgCl2). A solution of 4 mM NAD^+ (supplier: Sigma) was made. Human PARP-1 enzyme was obtained from Trevigen. Biotinylated histones and PVT-SPA beads were mixed and pre-incubated for 30 minutes at room temperature. PARP-1 enzyme (concentration was lot dependent) was mixed with the nicked DNA and the mixture was pre-incubated for 30 minutes at 4° C. Equal parts of this histones/PVT-SPA beads solution and PARP-1 enzyme/DNA solution were mixed and 75 μl of this mixture together with 1 μl of compound in DMSO and 25 μl of [^3H]-NAD^+was added per well into a 96-well microtiterplate. The final concentrations in the incubation mixture were 2 μg/ml for the biotinylated histones, 2 mg/ml for the PVT-SPA beads, 0.25 μg/ml for the nicked DNA and between 0.1-0.2 μg/ml for the PARP-1 enzyme. After incubation of the mixture for 20 minutes at room temperature, the reaction was terminated by adding 100 μl of 4 mM NAD^+ in water (final concentration 2 mM) and plates were mixed. The beads were sedimented by centrifugation (10 min, 800 rpm) and plates transferred to a TopCountNXT™ (Packard) for scintillation counting, values were expressed as counts per minute (cpm). For each experiment, controls (containing PARP-1 enzyme and DMSO without compound), a blank incubation (containing DMSO but no PARP-1 enzyme, no DNA or compound) and samples (containing PARP-1 enzyme, DNA and compound dissolved in DMSO) were run in parallel. All compounds tested were dissolved and eventually further diluted in DMSO. A dose-response curve was made wherein the compounds were tested at concentrations between 10^−5M and 3×10^−9M. In each test, the blank value was subtracted from both the control and the sample values. The control sample represented maximal PARP-1 enzyme activity. For each sample, the amount of cpm was expressed as a percentage of the mean cpm value of the controls. […] Herein the effects of test compounds are expressed as pIC50 (the negative log value of the IC50-value). As a reference compound, 4-amino-1,8-naphthalimide was included to validate the SPA assay.

[1] = tested on: Human colon carcinoma HCT116 cells; test: Detection of antiproliferative activity (Alamar Blue assay); format: cell-based; details: HCT-116, 96 h, 4-day incubation, read-out: Cellular assay HCT116 pIC50 (converted)
Procedure: Example C.4 Detection of Antiproliferative Activity
Human colon carcinoma HCT116 cells obtained from the ATCC were cultured in McCoy's 5A medium supplemented with 2 mM L-Glutamine, 50 μg/ml gentamicin and 10% heat inactivated fetal calf serum.
Reagents used in the Alamar Blue Assay
Resazurin was purchased from Aldrich (Prod. No. 199303). Potassium ferrocyanide, potassium ferricyanide, KH2PO4 and K2HPO4 were purchased from Sigma (Prod. Nos. P9387, P8131, P5655 and P8281, respectively).
Potassium Phosphate Buffer 0.1 M (PPB) was made as follows: 2.72 gram KH2PO4 and 13.86 gram K2HPO4 were dissolved in 500 ml milli-Q H2O, the pH was adjusted to pH 7.4 and the volume was brought to 1 liter with milli-Q H2O; the buffer was filter sterilised and stored at room temperature. Resazurin stock solution (PPB-A) was prepared fresh by dissolving 45 mg resazurin in 15 ml PBS. 30 mM potassium ferricyanide (PPB-B) was prepared by dissolving 0.987 gram potassium ferricyanide in 100 ml PPB. 30 mM potassium ferrocyanide (PPB-C) was prepared by dissolving 1.266 gram potassium ferrocyanide in 100 ml PPB.
Mixture of PPB-A, PPB-B and PPB-C was prepared by mixing equal volumes of the respective solutions. Resazurin work solution (herein termed “Alamar Blue” solution) was prepared by diluting said mixture 20× (vol/vol) in PPB and filter sterilising; the Alamar Blue solution could be kept at 4° C. for a maximum of 2 weeks.
Procedure of the Alamar Blue Assay
For experiments in 384 wells plates the cells were seeded at a density of 4.5×10^3 cells/ml in Falcon 384-well culture plates (Life Technologies, Merelbeke, Belgium), black with clear bottom, in 45 μl culture medium. Cells were allowed to adhere to plastic for 24 hours. The tested compound was pre-diluted (1/50 in culture medium) and 5 μl pre-diluted compound was added to the wells. Following 4-day incubation, 10 μl of the Alamar Blue solution was added to each well and the cells were further incubated for 4 hours (HCT116) or 24 hours (PC-3) at 37° C. The fluorescence intensity was measured for each well on a Fluorescence plate reader (Fluorskan, Labsystems, 540 nm excitation and 590 nm emission)
The antiproliferative activity was calculated as percentage of remaining viable cells in treated versus control (untreated cells) conditions. Within an experiment, the result for each experimental condition is the mean of 3 replicate wells. When appropriate, the experiments were repeated to establish full concentration-response curves. […] Herein the effects of tested compounds are expressed as pIC50 (the negative log value of the IC50 value) (see Table 3).

TANK-2 enzyme = TANK-2 enzyme (Homo sapiens (Human), UniProt Q9H2K2); test: In vitro Scintillation Proximity Assay (SPA) for TANK-2 inhibitory activity; format: biochemical; details: auto-poly(ADP-ribosyl)ation, [3H]-NAD+, Ni flash plates (96 or 384 well)
Sequence of TANK-2 enzyme (Q9H2K2 whole entry): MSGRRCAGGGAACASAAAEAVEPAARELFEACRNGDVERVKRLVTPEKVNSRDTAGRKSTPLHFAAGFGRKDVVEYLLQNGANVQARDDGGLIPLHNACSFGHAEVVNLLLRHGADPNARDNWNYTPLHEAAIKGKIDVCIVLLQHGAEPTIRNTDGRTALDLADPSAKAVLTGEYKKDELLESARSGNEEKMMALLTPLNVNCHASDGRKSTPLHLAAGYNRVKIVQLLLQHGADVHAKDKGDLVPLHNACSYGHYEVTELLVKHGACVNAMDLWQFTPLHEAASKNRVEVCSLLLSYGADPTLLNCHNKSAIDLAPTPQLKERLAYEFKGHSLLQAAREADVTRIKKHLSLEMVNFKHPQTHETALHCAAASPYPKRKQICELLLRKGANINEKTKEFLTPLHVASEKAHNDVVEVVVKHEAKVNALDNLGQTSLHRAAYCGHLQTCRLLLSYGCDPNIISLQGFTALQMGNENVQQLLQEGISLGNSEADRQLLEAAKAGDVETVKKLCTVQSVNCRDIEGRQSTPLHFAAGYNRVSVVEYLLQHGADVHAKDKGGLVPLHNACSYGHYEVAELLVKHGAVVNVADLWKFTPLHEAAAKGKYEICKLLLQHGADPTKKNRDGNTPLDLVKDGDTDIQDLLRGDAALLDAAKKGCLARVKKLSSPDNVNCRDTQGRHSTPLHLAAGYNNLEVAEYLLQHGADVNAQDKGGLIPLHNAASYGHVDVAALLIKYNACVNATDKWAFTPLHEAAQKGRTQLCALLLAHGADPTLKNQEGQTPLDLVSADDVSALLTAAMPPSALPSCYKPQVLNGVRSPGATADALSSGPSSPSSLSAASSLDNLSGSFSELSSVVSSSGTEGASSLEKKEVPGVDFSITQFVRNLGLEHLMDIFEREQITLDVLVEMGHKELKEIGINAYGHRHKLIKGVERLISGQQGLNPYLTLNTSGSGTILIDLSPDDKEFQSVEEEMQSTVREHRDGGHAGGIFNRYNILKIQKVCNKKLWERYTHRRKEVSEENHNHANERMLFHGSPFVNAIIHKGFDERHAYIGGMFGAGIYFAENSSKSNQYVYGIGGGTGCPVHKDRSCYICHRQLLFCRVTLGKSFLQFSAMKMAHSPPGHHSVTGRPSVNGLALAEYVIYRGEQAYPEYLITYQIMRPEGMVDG
Procedure: C.2.In Vitro Scintillation Proximity Assay (SPA) for TANK-2 Inhibitory Activity
Compounds of the present invention were tested in an in vitro assay based on SPA technology with Ni Flash plates (96 or 384 well).
In principle, the assay relies upon SPA technology for the detection of auto-poly(ADP-ribosyl)ation of TANK-2 protein using [^3H]-nicotinamide adenine dinucleotide ([^3H]-NAD^+) as ADP-ribosyl donor.
A stock solution of 100 nM [^3H]-NAD^+/NAD (0.1 mCi/ml, supplier: Perkin Elmer) and 25 μM NAD (Sigma) was made in assay buffer (60 mM Tris/HCl, pH 7.4; 0.9 mM DTT; 6 mM MgCl2). The TANK-2 enzyme was produced as described in EP1238063. 60 μl of assay buffer, together with 1 μl of compound in DMSO, 20 μl of [^3H]-NAD^+/NAD and 20 μl of TANK-2 enzyme (final concentration 8 μg/ml) was added per well into a 96-well Ni-coated flash plate (Perkin Elmer). After incubation of the mixture for 120 minutes at room temperature, the reaction was terminated by adding 60 μl of stopsolution (42.6 mg NAD in 6 ml H2O). The plates were covered with a plate sealer and placed in a TopCountNXT™ (Packard) for scintillation counting. Values were expressed as counts per minute (cpm). For each experiment, controls (containing TANK-2 enzyme and DMSO without compound), a blank incubation (containing DMSO but no TANK-2 enzyme or compound) and samples (containing TANK-2 enzyme and compound dissolved in DMSO) were run in parallel. All compounds tested were dissolved and eventually further diluted in DMSO. In first instance, compounds were tested at a concentration of 10^−5M. […] In each test, the blank value was subtracted from both the control and the sample values. The control sample represented maximal TANK-2 enzyme activity. For each sample, the amount of cpm was expressed as a percentage of the mean cpm value of the controls. […] Herein the effects of test compounds are expressed as pIC50 (the negative log value of the IC50-value). As reference compounds, 3-aminobenzamide and 4-amino-1,8-naphtalimide were included to validate the SPA assay. Herein the assay was described using 96-well plates. In the assay using 384-well plates the same final concentrations were used and volumes were adapted.

Sequence of Human PARP-1 enzyme (P09874 whole entry): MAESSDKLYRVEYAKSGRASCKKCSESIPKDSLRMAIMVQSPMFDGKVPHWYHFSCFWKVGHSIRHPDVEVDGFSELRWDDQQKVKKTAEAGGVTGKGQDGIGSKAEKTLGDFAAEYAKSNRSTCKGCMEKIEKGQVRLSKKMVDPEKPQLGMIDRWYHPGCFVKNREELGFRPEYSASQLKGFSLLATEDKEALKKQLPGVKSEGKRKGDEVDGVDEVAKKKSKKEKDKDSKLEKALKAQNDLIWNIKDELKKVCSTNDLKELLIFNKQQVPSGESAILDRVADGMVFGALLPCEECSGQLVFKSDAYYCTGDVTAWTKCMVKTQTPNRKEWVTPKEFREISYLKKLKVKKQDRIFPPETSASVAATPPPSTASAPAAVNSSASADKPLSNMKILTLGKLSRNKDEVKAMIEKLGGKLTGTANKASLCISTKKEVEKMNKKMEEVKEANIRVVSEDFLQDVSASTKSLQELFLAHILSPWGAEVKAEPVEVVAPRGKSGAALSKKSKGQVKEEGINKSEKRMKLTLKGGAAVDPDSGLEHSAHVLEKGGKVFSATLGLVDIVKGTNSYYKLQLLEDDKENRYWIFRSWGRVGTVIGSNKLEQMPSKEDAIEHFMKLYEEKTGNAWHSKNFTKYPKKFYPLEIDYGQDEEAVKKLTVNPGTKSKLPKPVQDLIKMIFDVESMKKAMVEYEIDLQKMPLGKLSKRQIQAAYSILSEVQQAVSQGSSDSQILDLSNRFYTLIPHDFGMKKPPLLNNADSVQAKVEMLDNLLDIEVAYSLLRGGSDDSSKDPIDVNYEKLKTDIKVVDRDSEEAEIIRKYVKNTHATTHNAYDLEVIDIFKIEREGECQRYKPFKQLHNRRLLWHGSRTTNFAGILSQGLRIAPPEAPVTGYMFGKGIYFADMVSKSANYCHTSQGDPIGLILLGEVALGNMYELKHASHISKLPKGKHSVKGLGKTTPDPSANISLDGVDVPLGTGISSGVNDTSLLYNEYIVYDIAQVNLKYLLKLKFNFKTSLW

SMILES | in vitro SPA assay PARP-1 pIC50 (Human PARP-1 enzyme) | IC50 [1] [nM] | in vitro SPA assay TANK-2 pIC50 (TANK-2 enzyme) | IC50 (Human PARP-1 enzyme; read-out: in vitro SPA assay PARP-1 pIC50 (converted)) [nM] | IC50 (TANK-2 enzyme; read-out: in vitro SPA assay TANK-2 pIC50 (converted)) [nM]
C[C@](C#N)(Cc1ccccc1)c1ccc2c3c(c(=O)[nH]c2c1)CCCC3 (single isomer, unassigned) [Co. No. 3] | 7.26 | 158 | 7.48 |  | 
CC(C#N)(Cc1cccc(OC(F)(F)F)c1)c1ccc2c3c(c(=O)[nH]c2c1)CCCC3 (stereo not drawn) [Co. No. 10] | 6.66 | 186 | 7.23 |  | 
CC(C#N)(Cc1cccc(CN)c1)c1ccc2c3c(c(=O)[nH]c2c1)CCCC3 (stereo not drawn) [Co. No. 16] | 6.10 | 417 | 7.42 |  | 
COC(=O)c1cccc(CC(C)(C#N)c2ccc3c4c(c(=O)[nH]c3c2)CCCC4)c1 (stereo not drawn) [Co. No. 14] |  | 105 |  | 97.7 | 63.1
CC(C#N)(Cc1cccc(CO)c1)c1ccc2c3c(c(=O)[nH]c2c1)CCCC3 (stereo not drawn) [Co. No. 15] | 7.48 | 229 | 7.39 |  | 
COc1cccc(CC(C)(C#N)c2ccc3c4c(c(=O)[nH]c3c2)CCCC4)c1 (stereo not drawn) [Co. No. 11] | 7.06 | 155 | 7.45 |  | 
CN(Cc1ccc(C#N)cc1)CC(C)(C#N)c1ccc2c3c(c(=O)[nH]c2c1)CCCC3 (stereo not drawn) [Co. No. 19] |  | 589 | 7.19 |  | 
C[C@@](C#N)(Cc1ccccc1)c1ccc2c3c(c(=O)[nH]c2c1)CCCC3 (single isomer, unassigned) [Co. No. 2] | 7.33 | > 10000 | 7.43 |  | 
CN(CC(C)(C#N)c1ccc2c3c(c(=O)[nH]c2c1)CCCC3)C(=O)c1ccccc1 (stereo not drawn) [Co. No. 18] |  | > 10000 |  |  | 
CC(C#N)(Cc1cc(Cl)nc(Cl)c1)c1ccc2c3c(c(=O)[nH]c2c1)CCCC3 (stereo not drawn) [Co. No. 9] | 7.20 | 158 | 6.35 |  | 
C[C@@](C#N)(Cc1cccc(F)c1)c1ccc2c3c(c(=O)[nH]c2c1)CCCC3 (single isomer, unassigned) [Co. No. 5a] | 7.80 | > 10000 | 7.40 |  | 
Cn1nc(CC(C)(C#N)c2ccc3c4c(c(=O)[nH]c3c2)CCCC4)c2ccccc21 (stereo not drawn) [Co. No. 12] | 7.34 | 178 | 7.37 |  | 
C[C@](C#N)(Cc1cccc(F)c1)c1ccc2c3c(c(=O)[nH]c2c1)CCCC3 (single isomer, unassigned) [Co. No. 5b] | 7.44 | 97.7 | 7.47 |  | 
Cn1c(CC(C)(C#N)c2ccc3c4c(c(=O)[nH]c3c2)CCCC4)nc2ccccc21 (stereo not drawn) [Co. No. 13] | 7.38 | 269 | 7.37 |  | 
